Legend:
[1] = biological target: T1, EGFR kinase (GST fusion of intracellular portion of EGFR, NM_005228) (Homo sapiens, UniProt P00533); assay: EGFR Kinase Assay; format: biochemical; conditions: GSTEGFR, ATP 5 μM, biotinylated polyGluTyr, 33P Flashplate; read-out: EGFR Inhibition (%) IC50
T1 construct: The intracellular portion of EGFR started at nucleotide 2189 (corresponding to amino acid 667) and ended at the termination codon; made in house; host or cells: Sf9 insect cells (baculovirus)
Description: The portion was PCR amplified with primers that added the lambda attB sequences to each end, recombined into an entry vector, then into a GST destination vector (as described in Gateway Technologies Manual by Invitrogen Corporation, Carlsbad, Calif.).
The destination vector was recombined in the DH10BAC strain of bacteria to produce a bacmid. The bacmid was transfected into Sf9 cells and the supernatant containing the baculovirus was collected. The GSTEGFR protein was purified using large cultures of Sf9 cells infected with stock virus. After an appropriate period of time, the cells were collected and lysed. The GSTEGFR was then purified from the lysate on Glutathione-Sepharose columns (as described by Amersham Biosciences, Buckinghamshire, United Kingdom).
The free biotin was separated from the biotinylated polyGluTyr on a gel filtration column.
A mixture of a 10× kinase buffer (500 mM Tris at pH 8.0, 100 mM Magnesium Chloride and 1 mM Sodium Vanadate), DTT (1 mM final from 500 mM stock), ATP (5 μM final from 10 mM stock), biotinylated polyGluTyr (10 μg/μL stock), γ-^33P ATP (10 μCi/μL stock) and water was added to each well (90 μL/well) of a Streptavidin Flashplate (Perkin Elmer, Wellesley, Mass.).
Test compound in 100% DMSO (2 μL) was added to the appropriate wells. Diluted GSTEGFR (1:300 dilution in 50 mM Tris at pH 8.0 and 0.1% bovine serum albumin) (10 μL) was added to the wells to initiate the reactions.
The plates were incubated at 30° C. for 1 hr with shaking. The reacted contents were removed and the plates were sequentially washed three times with a 1×PBS stop buffer (300 μL without Magnesium and Calcium) and 100 mM EDTA. After the final wash, the same stop buffer (200 μL) was added to the wells. The plates were then sealed and read on the TopCount scintillation counter.
Test compounds were assayed in triplicate at 16 concentrations at half-log dilutions starting at 200 uM. A maximum and minimum signal for the assay was determined on each plate. The percent inhibition of a test compound was calculated according to the formula
For a series of test concentrations, the IC50 was derived by graphing percent inhibition against the log of the concentrations tested for a given compound.

[2] = biological target: T2, HER2 (GST-HIS6-Thrombin fusion, amino acids 679 to 1255 of HER-2) (Homo sapiens, UniProt P04626); assay: HER2 Screening Assay; format: biochemical; conditions: 10 μM ATP, biotin-poly(GT) 4:1, 33P FlashPlate
T2 construct: GST (N); HIS6 (N); thrombin cleavage site (N); purchased Proqinase, Freiburg, Germany
Protocol: A kinase reaction mixture was prepared containing 50 mM Tris-HCl pH=8, 10 mM MgCl2, 0.1 mM […], 1 mM DTT, 10 μM ATP, 0.025 μM biotinylated histone-H1 peptide substrate and 0.2 μCuries per well ^33P-γ-ATP (2000-3000 Ci/mmol). 70 μL of the kinase reaction mixture was dispensed into the well of a streptavidin coated FlashPlate™ (Cat. # SMP103, NEN, Boston, Mass.).
Test compound stock in 100% DMSO (1 μL) was added to the wells resulting in a final concentration of 1% DMSO in the reaction with a 100 μL final reaction volume. Each enzyme was diluted in 50 mM Tris-HCl pH=8.0, 0.1% BSA and 30 μL was added to each well to initiate the reaction. The reaction was incubated for one hour at 30° C. At the end of the 1 hr incubation, the reaction was terminated by aspirating the mixture from the plate and washing the wells twice with PBS containing 100 mM EDTA. The biotinylated peptide substrate became immobilized on the Flashplate™ and the incorporation of ^33P-γ-ATP was measured by reading the plate on a scintillation counter. Inhibition of the enzymatic activity was measured by observing a reduced amount of ^33P-γ-ATP incorporated into the immobilized peptide.
The HER2 construct consisted of a fusion of GST (Glutathione-S-Transferase), HIS6 Thrombin and the nucleotides encoding amino acids 679 to 1255 of HER-2 (Accession number M11730) (Proqinase, Freiburg, Germany). The assay used 200 ng of the N-terminal biotinylated peptide biotin-poly(GT) 4:1 (HER2) per well.
A maximum and minimum signal for the assay was determined on each plate. The percent inhibition of a test compound was calculated according to the formula: […]
For a series of test concentrations, the IC50 was derived by graphing percent inhibition against the log of the concentrations tested for a given compound with results shown in Table 2.

[3] = tested on: BT474 breast carcinoma cells; assay: Cell Proliferation Inhibition Assay (14C-thymidine incorporation), BT-474; format: cell-based; conditions: Homo sapiens, BT-474 cells
Description: (§1) The ability of a test compound to inhibit unregulated cell proliferation may be determined by measuring incorporation of ^14C-labelled thymidine into newly synthesized DNA within cell lines derived from carcinomas originating from several tissues. Accordingly, the anti-proliferative effect of a compound on cells with a variety of phenotypes may be determined.
(§2) Carcinoma cell lines were obtained from the American Type Culture Collection (ATCC) and include those such as N87 (ATCC Cat. #), SKBR3 breast carcinoma (ATCC Cat. #HTB-30) and BT474 breast carcinoma (ATCC Cat. #HTB-20)
(§3) The carcinoma cells are trypsinized and counted. The cells (3000-8000 count) are added to each well of a 96-well CytoStar tissue culture treated scintillating microplate (Amersham #RPNQ0160) in complete medium (100 μL) and the plate is then incubated in complete medium for 24 hrs at 37° C. in an inert atmosphere containing 5% CO2. Test compound (1 μL) in 100% DMSO is added to the plate test-wells with DMSO only added to control-wells. The plate is incubated in complete medium for a second 24 hr period at 37° C. in an atmosphere containing 5% CO2.
(§4) An aliquot of a solution of Methyl ^14C-thymidine (56 mC/mmol) (NEN #NEC568 or Amersham #CFA532) and complete medium (20 μL to provide 0.2 μCi/well) is then added to each well and the plate is incubated for a third 24 hr period at 37° C. in an atmosphere containing 5% CO2. The plate contents are then discarded, the plate is washed twice with PBS (200 μL) and then PBS (200 μL) is added to each well. The plate is sealed and the degree of methyl ^14C-thymidine incorporation is quantified on a Packard Top Count.

N87 carcinoma cells = assay: Cell Proliferation Inhibition Assay (14C-thymidine incorporation), N87; format: cell-based
Description: as §1, §2, §3, §4

[4] = tested on: SKBR3 breast carcinoma cells; assay: Cell Proliferation Inhibition Assay (14C-thymidine incorporation), SK-BR-3; format: cell-based; conditions: Homo sapiens, SK-BR-3 cells
Description: as §1, §2, §3, §4

T1 sequence (P00533 669-1210 limits assumed): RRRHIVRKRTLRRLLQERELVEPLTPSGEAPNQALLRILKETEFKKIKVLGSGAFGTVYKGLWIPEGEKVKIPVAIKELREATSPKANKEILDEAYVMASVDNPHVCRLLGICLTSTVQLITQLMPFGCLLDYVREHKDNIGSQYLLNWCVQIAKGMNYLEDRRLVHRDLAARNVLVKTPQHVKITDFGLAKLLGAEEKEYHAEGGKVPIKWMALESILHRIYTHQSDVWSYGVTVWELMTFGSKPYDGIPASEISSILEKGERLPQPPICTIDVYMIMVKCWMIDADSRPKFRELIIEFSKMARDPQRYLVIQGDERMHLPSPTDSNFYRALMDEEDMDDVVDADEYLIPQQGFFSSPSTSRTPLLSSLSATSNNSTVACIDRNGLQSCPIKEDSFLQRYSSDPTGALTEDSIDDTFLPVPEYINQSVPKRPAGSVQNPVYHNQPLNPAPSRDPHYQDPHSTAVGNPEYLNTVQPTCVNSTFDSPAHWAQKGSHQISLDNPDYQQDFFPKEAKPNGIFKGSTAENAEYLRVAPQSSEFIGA
T2 sequence (P04626 679-1255): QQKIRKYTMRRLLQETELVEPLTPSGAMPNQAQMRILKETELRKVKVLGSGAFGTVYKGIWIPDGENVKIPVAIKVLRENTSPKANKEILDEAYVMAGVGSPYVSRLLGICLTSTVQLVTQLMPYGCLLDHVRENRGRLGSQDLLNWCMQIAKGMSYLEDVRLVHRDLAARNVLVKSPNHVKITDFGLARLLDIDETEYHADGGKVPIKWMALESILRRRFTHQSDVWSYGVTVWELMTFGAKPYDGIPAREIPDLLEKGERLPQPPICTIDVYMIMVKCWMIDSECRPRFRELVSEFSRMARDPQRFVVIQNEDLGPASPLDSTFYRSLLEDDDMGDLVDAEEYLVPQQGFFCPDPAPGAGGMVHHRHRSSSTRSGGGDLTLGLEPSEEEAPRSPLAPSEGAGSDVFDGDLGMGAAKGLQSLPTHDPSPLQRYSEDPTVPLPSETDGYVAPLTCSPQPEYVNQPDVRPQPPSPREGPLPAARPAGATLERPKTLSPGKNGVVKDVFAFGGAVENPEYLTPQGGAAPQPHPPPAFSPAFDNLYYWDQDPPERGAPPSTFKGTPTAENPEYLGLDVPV

Row | SMILES | IC50 [1] [nM] | IC50 [2] [nM] | IC50 [3] [nM] | IC50 (N87 carcinoma cells) [nM] | IC50 [4] [nM]
1 | COc1ccc(NN=Cc2c(N)ncnc2Nc2ccc3c(cnn3Cc3cccc(F)c3)c2)cc1 [Cpd 1, N-[1-(3-fluoro-benzyl)-1H-indazol-5-yl]-5-[(4-methoxy-phenyl)-hydrazonomethyl]-pyrimidine-4,6-diamine] | 49 | 118 |  |  | 
2 | CNN=Cc1c(N)ncnc1Nc1ccc2c(cnn2Cc2cccc(F)c2)c1 [Cpd 2, N-[1-(3-fluoro-benzyl)-1H-indazol-5-yl]-5-(methyl-hydrazonomethyl)-pyrimidine-4,6-diamine] | 12.4 | 83.6 |  |  | 
3 | COC[C@H]1CCCN1N=Cc1c(N)ncnc1Nc1ccc2c(cnn2Cc2cccc(F)c2)c1 [Cpd 7, N-[1-(3-fluoro-benzyl)-1H-indazol-5-yl]-5-{[(2R)-2-methoxymethyl-pyrrolidin-1-ylimino]-methyl}-pyrimidine-4,6-diamine] | 31.2 | 72.2 |  |  | 
4 | COC[C@@H]1CCCN1N=Cc1c(N)ncnc1Nc1ccc2c(cnn2Cc2cccc(F)c2)c1 [Cpd 8, N-[1-(3-fluoro-benzyl)-1H-indazol-5-yl]-5-{[(2S)-2-methoxymethyl-pyrrolidin-1-ylimino]-methyl}-pyrimidine-4,6-diamine] | 26.5 | 38.8 |  |  | 
5 | Nc1ncnc(Nc2ccc3c(cnn3Cc3cccc(F)c3)c2)c1C=NNCC(F)(F)F [Cpd 10, N-[1-(3-fluoro-benzyl)-1H-indazol-5-yl]-5-[(2,2,2-trifluoro-ethyl)-hydrazonomethyl]-pyrimidine-4,6-diamine] | 52.9 | 19.8 |  |  | 

Now those with a lower IC50 [2], led by results:

Row | IC50 [1] [nM] | IC50 [2] [nM] | IC50 [3] [nM] | IC50 (N87 carcinoma cells) [nM] | IC50 [4] [nM] | SMILES
6 |  | 18.3 | 48.5 | 365 | 691 | Nc1ncnc(Nc2ccc3c(cnn3Cc3cccc(F)c3)c2)c1C=NN1CCCCC1 [Cpd 3, N-[1-(3-fluoro-benzyl)-1H-indazol-5-yl]-5-(piperidin-1-yliminomethyl)-pyrimidine-4,6-diamine]
7 | 16.5 | 6.6 | 30.5 | 90.5 | 122 | Nc1ncnc(Nc2ccc3c(cnn3Cc3cccc(F)c3)c2)c1C=NN1CCOCC1 [Cpd 4, N-[1-(3-fluoro-benzyl)-1H-indazol-5-yl]-5-(morpholin-4-yliminomethyl)-pyrimidine-4,6-diamine]
8 | 8.2 | 2.4 | 63 | 131 | 148 | CN(C)/N=C/c1c(N)ncnc1Nc1ccc2c(cnn2Cc2cccc(F)c2)c1 [Cpd 5, 5-(dimethyl-hydrazonomethyl)-N-[1-(3-fluoro-benzyl)-1H-indazol-5-yl]-pyrimidine-4,6-diamine]
9 | 15.6 | 8.4 |  |  |  | CN1CCN(N=Cc2c(N)ncnc2Nc2ccc3c(cnn3Cc3cccc(F)c3)c2)CC1 [Cpd 6, N-[1-(3-fluoro-benzyl)-1H-indazol-5-yl]-5-[(4-methyl-piperazin-1-ylimino)-methyl]-pyrimidine-4,6-diamine]
10 | 9.77 | 8.37 | 13.5 | 58.4 | 58.5 | Nc1ncnc(Nc2ccc3c(cnn3Cc3cccc(F)c3)c2)c1C=NN1CCN(CCO)CC1 [Cpd 9, 2-[4-({4-amino-6-[1-(3-fluoro-benzyl)-1H-indazol-5-ylamino]-pyrimidin-5-ylmethylene}-amino)-piperazin-1-yl]-ethanol]
